Data from ChEMBL document CHEMBL1126299, “Synthesis and structure-activity relationships of cephalosporins with C-3' catechol-containing residues” (J Med Chem, 1992).
In brackets after ≈: the same amount, converted by molar mass.

How the values were obtained:
[1] = The compound was evaluated for area under the curve in marmosets; format: ADME; conditions: callithrix, in vivo
[2] = The half life period in marmosets; format: ADME; conditions: callithrix, in vivo
[3] = target: Beta-lactamase TEM (Escherichia coli) (UniProt P62593); assay: The dissociation constant of compound was tested for beta-Lactamase stability
[4] = test system: Enterobacter cloacae; assay: The compound was tested for minimum inhibitory concentration in Enterobacter cloacae, DR 401108 constitutive depressed type 1 lactamase producer; format: functional
[5] = species on record: Homo sapiens; assay: Compound is evaluated for serum protein binding in human blood (protein binding in marmoset blood); format: functional
[6] = The compound was tested for % urinary recovery in marmosets at the dose of 3 mg/kg; format: ADME, organism-based; parameters: dose 3 mg/kg; conditions: callithrix, urine, read-out: Recovery
[7] = test system: Citrobacter freundii; assay: microbe, parasite or virus in culture
Description: Minimum inhibitory concentration in Citrobacter freundii, DR 382031 constitutive depressed type 1

[8] = test system: Citrobacter freundii; assay: microbe, parasite or virus in culture; remark: listed apart in the source
Description: Minimum inhibitory concentration in Citrobacter freundii, I+382010 inducible type 1 lactamase producer

[9] = test system: Enterobacter cloacae; assay: microbe, parasite or virus in culture
Description: Minimum inhibitory concentration in Enterobacter cloacae, P99+ constitutive depressed type 1 lactamase producer

[10] = test system: Enterobacter cloacae; assay: microbe, parasite or virus in culture; remark: listed apart in the source
Description: Minimum inhibitory concentration in Enterobacter cloacae, I+401029 inducible type 1 lactamase producer

[11] = test system: Enterobacter cloacae; assay: microbe, parasite or virus in culture; remark: listed apart in the source
Description: Minimum inhibitory concentration in Enterobacter cloacae, P99- inducible type 1 lactamase producer

[12] = test system: Pseudomonas aeruginosa; assay: microbe, parasite or virus in culture
Description: Minimum inhibitory concentration in Pseudomonas aeruginosa, 18S inducible type 1 lactamase producer

[13] = test system: Pseudomonas aeruginosa; assay: microbe, parasite or virus in culture; remark: listed apart in the source
Description: Minimum inhibitory concentration in Pseudomonas aeruginosa, 18SH constitutive depressed type 1 lactamase producer

[14] = test system: Pseudomonas aeruginosa; assay: microbe, parasite or virus in culture; remark: listed apart in the source
Description: Minimum inhibitory concentration in Pseudomonas aeruginosa,799WT parent organism

[15] = test system: Providencia stuartii; assay: microbe, parasite or virus in culture
Description: Minimum inhibitory concentration in Pseudomonas stuartii, DR 442049 constitutive depressed type 1 lactamase producer

[16] = test system: Providencia stuartii; assay: microbe, parasite or virus in culture; remark: listed apart in the source
Description: Minimum inhibitory concentration in Pseudomonas stuartii, I+442019 inducible type 1 lactamase producer

[17] = test system: Pseudomonas aeruginosa; assay: microbe, parasite or virus in culture; remark: listed apart in the source
Description: Minimum inhibitory concentration in Pseudomonas aeruginosa,799/61 permeability mutant

[18] = test system: Staphylococcus aureus; assay: microbe, parasite or virus in culture
[19] = test system: Enterobacter cloacae; assay: microbe, parasite or virus in culture; remark: listed apart in the source
Description: Minimum inhibitory concentration in Enterobacter cloacae, DR 401108 constitutive depressed type 1 lactamase producer

[20] = test system: Escherichia coli; assay: microbe, parasite or virus in culture
Description: In vitro minimum inhibitory concentration against Escherichia coli (DC0 parent organism).

[21] = test system: Escherichia coli; assay: microbe, parasite or virus in culture; remark: listed apart in the source
Description: In vitro minimum inhibitory concentration against Escherichia coli (DC2 permeability mutant).

[22] = test system: Pseudomonas aeruginosa; assay: microbe, parasite or virus in culture; remark: listed apart in the source
Description: In vitro minimum inhibitory concentration against Pseudomonas aeruginosa (PU21).

[23] = test system: Staphylococcus aureus; assay: microbe, parasite or virus in culture; remark: listed apart in the source
[24] = test system: Citrobacter freundii; assay: The compound was tested for minimum inhibitory concentration in Citrobacter freundii, DR 382031 constitutive depressed type 1; format: functional
[25] = test system: Staphylococcus aureus; assay: The compound was tested for minimum inhibitory concentration in Staphylococcus aureus Oxford penicillin sensitive Staphylococcus aureus; format: functional
[26] = test system: Staphylococcus aureus; assay: The compound was tested for minimum inhibitory concentration in Staphylococcus aureus,147N penicillin sensitive Staphylococcus aureus; format: functional
[27] = test system: Citrobacter freundii; assay: The compound was tested for minimum inhibitory concentration in Citrobacter freundii,I+382010 inducible type 1 lactamase producer; format: functional
[28] = test system: Enterobacter cloacae; assay: The compound was tested for minimum inhibitory concentration in Enterobacter cloacae,I+401029 inducible type 1 lactamase producer; format: functional
[29] = test system: Pseudomonas aeruginosa; assay: The compound was tested for minimum inhibitory concentration in Pseudomonas aeruginosa,799/61 permeability mutant; format: functional
[30] = test system: Pseudomonas aeruginosa; assay: The compound was tested for minimum inhibitory concentration in Pseudomonas aeruginosa,799WT parent organism; format: functional
[31] = test system: Providencia stuartii; assay: (§1) The compound was tested for minimum inhibitory concentration in Pseudomonas stuartii,I+442019 inducible type 1 lactamase producer; format: functional
[32] = test system: Citrobacter freundii; assay: The compound was tested for minimum inhibitory concentration in Citrobacter freundii, I+382010 inducible type 1 lactamase producer; format: functional
[33] = test system: Enterobacter cloacae; assay: The compound was tested for minimum inhibitory concentration in Enterobacter cloacae,P99- inducible type 1 lactamase producer; format: functional
[34] = test system: Pseudomonas aeruginosa; assay: The compound was tested for minimum inhibitory concentration in Pseudomonas aeruginosa,18S inducible type 1 lactamase producer; format: functional
[35] = test system: Citrobacter freundii; assay: The compound was tested for minimum inhibitory concentration in Citrobacter freundii, Citrobacter freundii, DR 382031; format: functional
[36] = test system: Providencia stuartii; assay: as §1; format: functional, pseudomonas stuartiii
[37] = physchem
[38] = The compound was evaluated for area under the curve; format: ADME
[39] = The half life period was tested; format: ADME

Beta-lactamase TEM (Escherichia coli), sequence (P62593 whole entry): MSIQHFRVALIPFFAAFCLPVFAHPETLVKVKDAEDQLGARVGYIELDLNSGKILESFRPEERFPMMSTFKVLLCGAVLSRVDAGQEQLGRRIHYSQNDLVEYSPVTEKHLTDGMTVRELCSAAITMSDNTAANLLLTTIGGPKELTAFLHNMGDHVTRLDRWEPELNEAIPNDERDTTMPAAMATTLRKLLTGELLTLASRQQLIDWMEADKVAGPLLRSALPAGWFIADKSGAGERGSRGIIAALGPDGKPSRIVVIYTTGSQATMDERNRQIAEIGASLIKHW

Row | Structure (SMILES) | AUC [1] | half-life [2] | pKa [3] | Activity [5] | dose excreted [6] | MIC [7] | MIC [8] | MIC [9] | MIC [10] | MIC [11] | MIC [12] | MIC [13] | MIC [14] | MIC [15] | MIC [16] | MIC [17] | MIC [19] | MIC [20] | MIC [21] | MIC [22] | also measured
1 | CC(C)(O/N=C(\C(=O)N[C@@H]1C(=O)N2C(C(=O)O)=C(CNC(=O)c3cc(Cl)c(O)c(O)c3Cl)CSC12)c1csc(N)n1)C(=O)O (stereo partly specified) | 461 mg/h/L | 8.22 h | 6.3 | 98.7% | 16.2% | 2 µg/mL (≈ 2.9 µM) | 0.008 µg/mL (≈ 0.0116 µM) | 4 µg/mL (≈ 5.8 µM) | 0.008 µg/mL (≈ 0.0116 µM) | 0.03 µg/mL (≈ 0.0435 µM) | 0.008 µg/mL (≈ 0.0116 µM) | 0.015 µg/mL (≈ 0.0218 µM) | 0.008 µg/mL (≈ 0.0116 µM) | 1 µg/mL (≈ 1.45 µM) | 0.06 µg/mL (≈ 0.087 µM) | 0.008 µg/mL (≈ 0.0116 µM) | – | – | – | – | MIC [4]: 4 µg/mL (≈ 5.8 µM)
2 | CCn1cc(C(=O)NCC2=C(C(=O)O)N3C(=O)[C@@H](NC(=O)/C(=N\OC(C)(C)C(=O)O)c4csc(N)n4)C3SC2)c(=O)c2cc(O)c(O)cc21 (stereo partly specified) | 238.5 mg/h/L | 3.47 h | 7.2 | 99.2% | 13.9% | 0.125 µg/mL (≈ 0.175 µM) | 0.008 µg/mL (≈ 0.0112 µM) | 0.25 µg/mL (≈ 0.349 µM) | 0.06 µg/mL (≈ 0.0838 µM) | 0.06 µg/mL (≈ 0.0838 µM) | 0.008 µg/mL (≈ 0.0112 µM) | 0.008 µg/mL (≈ 0.0112 µM) | 0.008 µg/mL (≈ 0.0112 µM) | 8 µg/mL (≈ 11.2 µM) | 0.25 µg/mL (≈ 0.349 µM) | 0.008 µg/mL (≈ 0.0112 µM) | 1 µg/mL (≈ 1.4 µM) | 0.008 µg/mL (≈ 0.0112 µM) | 0.008 µg/mL (≈ 0.0112 µM) | 0.06 µg/mL (≈ 0.0838 µM) | MIC [18]: 16 µg/mL (≈ 22.4 µM); MIC [23]: 16 µg/mL (≈ 22.4 µM)
3 | CC(C)(O/N=C(\C(=O)N[C@@H]1C(=O)N2C(C(=O)O)=C(CCNC(=O)c3cc(O)c(O)c(Br)c3)CSC12)c1csc(N)n1)C(=O)O (stereo partly specified) | – | – | – | 99% | 17.5% | – | 0.008 µg/mL (≈ 0.0112 µM) | 2 µg/mL (≈ 2.8 µM) | 0.015 µg/mL (≈ 0.021 µM) | 0.03 µg/mL (≈ 0.042 µM) | 0.008 µg/mL (≈ 0.0112 µM) | 0.015 µg/mL (≈ 0.021 µM) | 0.008 µg/mL (≈ 0.0112 µM) | 4 µg/mL (≈ 5.61 µM) | 0.25 µg/mL (≈ 0.35 µM) | 0.008 µg/mL (≈ 0.0112 µM) | 8 µg/mL (≈ 11.2 µM) | 0.008 µg/mL (≈ 0.0112 µM) | 0.008 µg/mL (≈ 0.0112 µM) | 0.008 µg/mL (≈ 0.0112 µM) | MIC [24]: 1 µg/mL (≈ 1.4 µM); MIC [25]: 16 µg/mL (≈ 22.4 µM); MIC [26]: 16 µg/mL (≈ 22.4 µM)
4 | CC(C)(O/N=C(\C(=O)N[C@@H]1C(=O)N2C(C(=O)O)=C(CNC(=O)c3cnc4cc(O)c(O)cc4c3O)CSC12)c1csc(N)n1)C(=O)O (stereo partly specified) | – | – | – | – | – | – | – | 0.06 µg/mL (≈ 0.0873 µM) | – | 0.03 µg/mL (≈ 0.0436 µM) | 0.008 µg/mL (≈ 0.0116 µM) | 0.008 µg/mL (≈ 0.0116 µM) | – | 2 µg/mL (≈ 2.91 µM) | – | – | 1 µg/mL (≈ 1.45 µM) | – | – | – | MIC [24]: 0.125 µg/mL (≈ 0.182 µM); MIC [27]: 0.008 µg/mL (≈ 0.0116 µM); MIC [28]: 0.03 µg/mL (≈ 0.0436 µM); MIC [29]: 0.008 µg/mL (≈ 0.0116 µM); MIC [30]: 0.008 µg/mL (≈ 0.0116 µM); MIC [31]: 0.03 µg/mL (≈ 0.0436 µM)
5 | CC(C)(O/N=C(\C(=O)N[C@@H]1C(=O)N2C(C(=O)O)=C(CNC(=O)c3ccc(O)c(O)c3)CSC12)c1csc(N)n1)C(=O)O (stereo partly specified) | 27.2 mg/h/L | 1.25 h | 8.5 | 96.3% | 44.8% | 16 µg/mL (≈ 25.8 µM) | 0.03 µg/mL (≈ 0.0483 µM) | 16 µg/mL (≈ 25.8 µM) | 0.125 µg/mL (≈ 0.201 µM) | 0.125 µg/mL (≈ 0.201 µM) | 0.008 µg/mL (≈ 0.0129 µM) | 0.06 µg/mL (≈ 0.0967 µM) | 0.008 µg/mL (≈ 0.0129 µM) | 1 µg/mL (≈ 1.61 µM) | 0.25 µg/mL (≈ 0.403 µM) | 0.008 µg/mL (≈ 0.0129 µM) | > 128 µg/mL | 0.008 µg/mL (≈ 0.0129 µM) | 0.008 µg/mL (≈ 0.0129 µM) | 0.015 µg/mL (≈ 0.0242 µM) | MIC [18]: 16 µg/mL (≈ 25.8 µM); MIC [23]: 8 µg/mL (≈ 12.9 µM)
6 | CC(C)(O/N=C(\C(=O)N[C@@H]1C(=O)N2C(C(=O)O)=C(CNC(=O)c3ccc4cc(O)c(O)cc4c3)CSC12)c1csc(N)n1)C(=O)O (stereo partly specified) | – | – | – | – | – | – | – | 16 µg/mL (≈ 23.9 µM) | – | – | – | 0.125 µg/mL (≈ 0.186 µM) | 0.03 µg/mL (≈ 0.0447 µM) | 8 µg/mL (≈ 11.9 µM) | – | 0.008 µg/mL (≈ 0.0119 µM) | > 128 µg/mL | – | – | – | MIC [24]: 16 µg/mL (≈ 23.9 µM); MIC [32]: 0.008 µg/mL (≈ 0.0119 µM); MIC [28]: 0.125 µg/mL (≈ 0.186 µM); MIC [33]: 0.125 µg/mL (≈ 0.186 µM); MIC [34]: 0.008 µg/mL (≈ 0.0119 µM); MIC [31]: 0.25 µg/mL (≈ 0.373 µM)
7 | CCn1cc(C(=O)NCC2=C(C(=O)O)N3C(=O)[C@@H](NC(=O)/C(=N\OC(C)(C)C(=O)O)c4csc(N)n4)C3SC2)c(=O)c2c(C#N)c(O)c(O)cc21 (stereo partly specified) | – | – | – | – | – | – | 0.008 µg/mL (≈ 0.0108 µM) | 0.015 µg/mL (≈ 0.0203 µM) | 0.015 µg/mL (≈ 0.0203 µM) | 0.015 µg/mL (≈ 0.0203 µM) | 0.008 µg/mL (≈ 0.0108 µM) | 0.008 µg/mL (≈ 0.0108 µM) | – | – | – | – | 0.5 µg/mL (≈ 0.675 µM) | – | – | – | MIC [35]: 0.03 µg/mL (≈ 0.0405 µM); MIC [29]: 0.008 µg/mL (≈ 0.0108 µM); MIC [30]: 0.008 µg/mL (≈ 0.0108 µM); MIC [36]: 0.008 µg/mL (≈ 0.0108 µM); pKa [37]: < 5.5
8 | CC(C)(O/N=C(\C(=O)N[C@@H]1C(=O)N2C(C(=O)O)=C(CNC(=O)c3cc(O)c4cc(O)c(O)cc4n3)CSC12)c1csc(N)n1)C(=O)O (stereo partly specified) | – | – | – | – | – | – | – | 16 µg/mL (≈ 23.3 µM) | 0.5 µg/mL (≈ 0.727 µM) | 0.06 µg/mL (≈ 0.0873 µM) | 0.008 µg/mL (≈ 0.0116 µM) | 0.125 µg/mL (≈ 0.182 µM) | – | 16 µg/mL (≈ 23.3 µM) | 0.008 µg/mL (≈ 0.0116 µM) | – | 4 µg/mL (≈ 5.82 µM) | – | – | 2 µg/mL (≈ 2.91 µM) | MIC [29]: 0.06 µg/mL (≈ 0.0873 µM); MIC [30]: 0.008 µg/mL (≈ 0.0116 µM)
9 | CC(C)(O/N=C(\C(=O)N[C@@H]1C(=O)N2C(C(=O)[O-])=C(C[n+]3ccccc3)CS[C@H]12)c1csc(N)n1)C(=O)O [CEFTAZIDIME] | – | – | – | – | – | 128 µg/mL (≈ 234 µM) | 0.125 µg/mL (≈ 0.229 µM) | – | – | – | 2 µg/mL (≈ 3.66 µM) | – | 0.125 µg/mL (≈ 0.229 µM) | 4 µg/mL (≈ 7.32 µM) | 0.25 µg/mL (≈ 0.457 µM) | 0.008 µg/mL (≈ 0.0146 µM) | – | – | – | – | AUC [38]: 14 mg/h/L; half-life [39]: 0.7 h
